Experiment: recombinant UMI read abundance after kanamycin selection (control-corrected) (log10(CPM+1)); higher = more efficient recombination; extreme values may be limits of the assay; sequences stand for … in AGTGCAGAGAAAATCGGCCAGTTTTCTCTGCCTGCAGTCCGCATGCCGTGGGACCCCTTGGGTTCTAACCTGTTGCCTAGATTTATGCAGCGGACTGCCTTTCTCCCAAAGTGATAAACCGG…AGGTTGGTTTCACT; site = the 11-nt donor
Protocol: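 Pooled E. coli donor-specificity screen for the IS621 bridge recombinase. Each library member carries a reprogrammed 11-nt donor and a full-length LE bridge RNA expressed in cis from the natural promoter, with a paired donor-binding loop (8-nt LDG + 4-nt RDG) and a target-binding loop fixed to T5. It is co-electroporated with a T5 target plasmid; recombinase is induced with 0.07 mM IPTG and recombinants are selected on kanamycin. UMIs are counted as CPM, averaged over two biological replicates and corrected by the unselected control. Molecule = full bridge RNA written as DNA, built from the T5 scaffold: LDG = donor specificity nt 1-8, RDG = reverse complement of nt 8-11.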
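Also: IS621 bridge recombinase in Escherichia coli cells against a fixed T5 target plasmid.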

In order of rising “recombinant UMI read abundance (log10)” value:
1. ACTCGAACATGGACCGGTTTTCCCGGTAATCCGTATTTGTC (site ACACGAACTGA)  0
2. ACTCTACCATGGACCGGTTTTCCCGGTAATCCGTATTTGCT (site ACTCTACCTAG)  0
3. AGAAAACCATGGACCGGTTTTCCCGGTAATCCGTATTTGCG (site AGAAAACCTCG)  0
4. AGAAACGCATGGACCGGTTTTCCCGGTAATCCGTATTTGCT (site AGAAAGGCTAG)  0
5. AGAAACGCATGGACCGGTTTTCCCGGTAATCCGTATTTGCT (site AGAAATGCTAG)  0
6. AGAAAGACATGGACCGGTTTTCCCGGTAATCCGTATTTGCG (site AGGAAGACTTG)  0
7. AGAAAGGCATGGACCGGTTTTCCCGGTAATCCGTATTTGCG (site AGAAAGGCTGG)  0
8. AGAAAGGCATGGACCGGTTTTCCCGGTAATCCGTATTTGCT (site AAAAAGGCTAG)  0
9. AGAAAGGCATGGACCGGTTTTCCCGGTAATCCGTATTTGCT (site AGAAAAGCTAG)  0
10. AGAAAGGCATGGACCGGTTTTCCCGGTAATCCGTATTTGCT (site AGAAACGCTAG)  0
11. AGAAAGGCATGGACCGGTTTTCCCGGTAATCCGTATTTGCT (site AGAAAGACTAG)  0
12. AGAAAGGCATGGACCGGTTTTCCCGGTAATCCGTATTTGCT (site AGAAAGCCTAG)  0
13. AGAAAGGCATGGACCGGTTTTCCCGGTAATCCGTATTTGCT (site AGAAAGGCTTG)  0
14. AGAAAGGCATGGACCGGTTTTCCCGGTAATCCGTATTTGCT (site AGAAAGTCTAG)  0
15. AGAAAGGCATGGACCGGTTTTCCCGGTAATCCGTATTTGCT (site AGAAATGCTAG)  0
16. AGAAAGGCATGGACCGGTTTTCCCGGTAATCCGTATTTGCT (site AGAATGGCTAG)  0
17. AGAAAGGCATGGACCGGTTTTCCCGGTAATCCGTATTTGCT (site AGACAGGCTAG)  0
18. AGAAAGGCATGGACCGGTTTTCCCGGTAATCCGTATTTGCT (site AGCAAGGCTAG)  0
19. AGAAAGGCATGGACCGGTTTTCCCGGTAATCCGTATTTGCT (site ATAAAGGCTAG)  0
20. AGAAAGTCATGGACCGGTTTTCCCGGTAATCCGTATTTGCT (site AGAAAGACTAG)  0
21. AGAAAGTCATGGACCGGTTTTCCCGGTAATCCGTATTTGCT (site AGAAAGCCTAG)  0
22. AGAAAGTCATGGACCGGTTTTCCCGGTAATCCGTATTTGCT (site AGAAAGGCTAG)  0
23. AGACTAGCATGGACCGGTTTTCCCGGTAATCCGTATTTGTT (site AGCCTAGCTAA)  0.00926
24. AGAAAGGCATGGACCGGTTTTCCCGGTAATCCGTATTTGCT (site ACAAAGGCTAG)  0.00966
25. AGAAAGGCATGGACCGGTTTTCCCGGTAATCCGTATTTGCT (site GGAAAGGCTAG)  0.0101
26. ACTTCGCCATGGACCGGTTTTCCCGGTAATCCGTATTTGCT (site ACTTCGCCTAG)  0.0122
27. AGACTAGCATGGACCGGTTTTCCCGGTAATCCGTATTTGTT (site AGTCTAGCTAA)  0.0145
28. AGACTAGCATGGACCGGTTTTCCCGGTAATCCGTATTTGTT (site AGGCTAGCTAA)  0.0149
29. ACTTGCCCATGGACCGGTTTTCCCGGTAATCCGTATTTGAT (site GCTTGCCCTAT)  0.0168
30. AGAAAGGCATGGACCGGTTTTCCCGGTAATCCGTATTTGCT (site AGAAAGGCTAC)  0.019
31. ACTTGCCCATGGACCGGTTTTCCCGGTAATCCGTATTTGAT (site TCTTGCCCTAT)  0.0192
32. ACTTATGCATGGACCGGTTTTCCCGGTAATCCGTATTTGCT (site ACTTATGCTAG)  0.0248
33. ACTTGCCCATGGACCGGTTTTCCCGGTAATCCGTATTTGAT (site CCTTGCCCTAT)  0.0521
34. AGAAAGGCATGGACCGGTTTTCCCGGTAATCCGTATTTGCT (site AGAAGGGCTAG)  0.224
35. AGAAAGGCATGGACCGGTTTTCCCGGTAATCCGTATTTGCT (site AGAACGGCTAG)  0.235
36. AGAAAGGCATGGACCGGTTTTCCCGGTAATCCGTATTTGCT (site AGAAAGGCTGG)  0.262
37. ACTTGCCCATGGACCGGTTTTCCCGGTAATCCGTATTTGAT (site ACTTGCCCTAT)  0.398
38. AGAAAGGCATGGACCGGTTTTCCCGGTAATCCGTATTTGCT (site AGAAAGGCTAA)  0.446
39. AGAAAGGCATGGACCGGTTTTCCCGGTAATCCGTATTTGCT (site CGAAAGGCTAG)  0.48
40. AGAAAGGCATGGACCGGTTTTCCCGGTAATCCGTATTTGCT (site AGAGAGGCTAG)  0.846
41. AGAAAGGCATGGACCGGTTTTCCCGGTAATCCGTATTTGCT (site TGAAAGGCTAG)  0.932
42. AGAAAGGCATGGACCGGTTTTCCCGGTAATCCGTATTTGCG (site AGAAAGGCTAG)  1.07
43. AGACTAGCATGGACCGGTTTTCCCGGTAATCCGTATTTGTT (site AGACTAGCTAA)  1.07
44. AGAAAGGCATGGACCGGTTTTCCCGGTAATCCGTATTTGCG (site AGAAAGGCTTG)  1.15
45. AGAAAGGCATGGACCGGTTTTCCCGGTAATCCGTATTTGCT (site AGATAGGCTAG)  1.23
46. ACTTGATCATGGACCGGTTTTCCCGGTAATCCGTATTTGGC (site ACTTGATCTGC)  1.24
47. ACTCGAACATGGACCGGTTTTCCCGGTAATCCGTATTTGTC (site ACGCGAACTGA)  1.26
48. ACTTTGGCATGGACCGGTTTTCCCGGTAATCCGTATTTGTA (site ACTTTGGCTTA)  1.26
49. AGAAAGGCATGGACCGGTTTTCCCGGTAATCCGTATTTGCT (site AGAAAGGCTAT)  1.27
50. AGAACAACATGGACCGGTTTTCCCGGTAATCCGTATTTGTG (site AGAACAACTCA)  1.29
51. AGAAAGGCATGGACCGGTTTTCCCGGTAATCCGTATTTGCT (site AGTAAGGCTAG)  1.3
52. AGACGCACATGGACCGGTTTTCCCGGTAATCCGTATTTGAA (site AGACGCACTTT)  1.43
53. AGAGAGACATGGACCGGTTTTCCCGGTAATCCGTATTTGCA (site AGGAAGACTTG)  1.56
54. AGAAAGGCATGGACCGGTTTTCCCGGTAATCCGTATTTGCG (site AGAAAGGCTCG)  1.64
55. AGAAAGGCATGGACCGGTTTTCCCGGTAATCCGTATTTGCT (site AGAAAGGCTCG)  1.65
56. AGAAAGGCATGGACCGGTTTTCCCGGTAATCCGTATTTGCT (site AGGAAGGCTAG)  1.73
57. AGACGAACATGGACCGGTTTTCCCGGTAATCCGTATTTGGA (site AGACGAACTTC)  1.82
58. ACTCGAACATGGACCGGTTTTCCCGGTAATCCGTATTTGTC (site ACCCGAACTGA)  1.84
59. AGAAACGCATGGACCGGTTTTCCCGGTAATCCGTATTTGCT (site AGAAAAGCTAG)  1.84
60. ACTCGAACATGGACCGGTTTTCCCGGTAATCCGTATTTGTC (site ACTCGAACTGA)  2
61. ACTCGCTCATGGACCGGTTTTCCCGGTAATCCGTATTTGGT (site ACTCGCTCTAC)  2.03
62. AGAATCACATGGACCGGTTTTCCCGGTAATCCGTATTTGAA (site AGAATCACTTT)  2.16
63. AGAAAGGCATGGACCGGTTTTCCCGGTAATCCGTATTTGCT (site AGAAAGGCTAG)  2.58
64. AGACTAACATGGACCGGTTTTCCCGGTAATCCGTATTTGCT (site AGACTAACTAG)  2.61
65. AGAAAGACATGGACCGGTTTTCCCGGTAATCCGTATTTGCG (site AGAAAGACTCG)  2.63
66. AGAAAGTCATGGACCGGTTTTCCCGGTAATCCGTATTTGCT (site AGAAAGTCTAG)  2.63
67. AGAGACGCATGGACCGGTTTTCCCGGTAATCCGTATTTGAG (site AGAGACGCTCT)  2.67
68. AGACGCGCATGGACCGGTTTTCCCGGTAATCCGTATTTGTA (site AGACGCGCTTA)  2.72
69. AGAAACGCATGGACCGGTTTTCCCGGTAATCCGTATTTGCT (site AGAAACGCTAG)  2.81
70. ACTGACACATGGACCGGTTTTCCCGGTAATCCGTATTTGAC (site ACTGACACTGT)  2.83
71. AGAGAGACATGGACCGGTTTTCCCGGTAATCCGTATTTGCA (site AGAGAGACTTG)  2.98
72. AGACGGTCATGGACCGGTTTTCCCGGTAATCCGTATTTGGC (site AGACGGTCTGC)  3.28
